Source: patent publication US20220326255A1, “METHODS OF MONITORING MUCOSAL HEALING” (MediBeacon Inc., priority 2021, published 2022)
Each block holds one compound with its values, some of them ahead of it.

How the values were obtained:
[1] = Cumulative urinary percent recovery of enterally administered tracer, crossover study in healthy adults and adults with Crohn's disease; assay type: in vivo, human; details: for percent of administered dose recovered in urine: Crohn's disease patients
Experimental: (§1) A single center, randomized, open label, crossover study was performed to evaluate a solution containing 18.6 mg/mL of a pyrazine derived fluorophore (MB-102) at 1.5 or 3.0 mg/kg versus DSAT (L, 1000 mg and R, 200 mg) administered enterally.
(§2) To compare the dynamic ranges of the fluorophore and DSAT clearances, healthy adults and adults with evidence of small bowel Crohn's disease on magnetic resonance enterography were enrolled. Participants were randomized to receive either the fluorophore tracer or the sugars on treatment day 1, followed by the other tracer 3-7 days later. Urine was collected at baseline and 1, 2, 4, 6, 8, 10, and 12 hours after tracer ingestion. The cumulative urinary percent recovery of the fluorophore tracer was calculated using an Ultra-Performance Liquid Chromatography system with fluorescence detection and cumulative L, R, and L:R ratios using a normal phase, isocratic HPLC-tandem ESI mass spectrometry.

[2] = tested on: rat model of small bowel injury; experiment: Percent of administered dose of MB-102 recovered in urine, rat model of small bowel injury; assay type: in vivo; details: rats with bowel injury compared to controls; oral gavage
Experimental: (§3) To this end, MB-102 was tested in the rat model of small bowel injury (FIGS. 4A and 4B). Transdermal measurements were initiated prior to oral gavage of MB-102 and transdermal measurements, alongside urine, were collected over time. Based on urine samples the Percent of Administered Dose Recovered was higher in rats with bowel injury than controls (FIG. 4A).

[3] = Safety and tolerability of orally administered MB-102 in the human study; assay type: in vivo
Experimental: as §1, §2
5 healthy adults and 4 adults with Crohn's disease completed the study without serious adverse events. […] At 12 hours post-dose in the healthy participants, approximately 0.5% to 1.0% of the administered dose was recovered, reflecting the inability of MB-102 to transverse the intestinal barrier when gut permeability is normal. […]

[4] = MB-102 plasma concentration (HPLC) after oral dose in healthy and Crohn's disease participants; assay type: in vivo, human; details: for concentration at 360 min / concentration at 720 min: human, plasma, po
Experimental: In addition, two healthy participants and one participant with Crohn's disease were administered an oral dose of MB-102, and blood samples were collected at 6 and 12 hours post-administration. MB-102 plasma concentration levels were determined by HPLC.

[5] = tested on: rat model of bowel injury; experiment: Transdermal fluorescence detection of fluorophore after oral gavage, rat model of bowel injury; assay type: in vivo; details: monitored continuously
From the text: To probe the ability to assess gut function in a specimen-free and real-time manner, a dual-wavelength transdermal fluorescence detection system was utilized to monitor MB-301 and MB-404 in the rat model of bowel injury. […] Following anaesthetization, the fluorescence detection system was affixed with medical adhesive to a depilated area on the back of each rat. Transdermal fluorescence monitoring was then initiated to detect baseline fluorescence prior to delivery of MB-301 and MB-404 by oral gavage, and was monitored continuously. The concentration of MB-301 as determined by transdermal fluorescence measurements remained low in both injured and control animals (FIG. 2, dashed lines) as this fluorophore is comparatively rapidly absorbed by the small intestine and subsequently cleared. […] Therefore, transdermal detection of MB-301 and MB-404 fluorescence can be used to provide a non-invasive, real-time indication of gut health.
as §3

[6] = tested on: rat model of small bowel injury; experiment: Ratio of MB-404 to MB-301 in urine (HPLC) after oral gavage, rat model of small bowel injury; assay type: in vivo; details: injured rats (indomethacin-induced bowel injury) compared to control rats
From the text: DSAT was mimicked using two fluorophores with similar molecular weights to mannitol and lactulose, MB-301 and MB-404 (see Table 2).
Furthermore, like both sugars used in the DSAT, MB-301 and MB-404 are not metabolized and are excreted by glomerular filtration, with neither (or negligible) tubular secretion nor reabsorption. To test the ability to distinguish between healthy and diseased gut, a rat model of small bowel injury was used with two injured and two control rats. The day after indomethacin-induced bowel injury, the rats were anaesthetized, a catheter was inserted for urine collection, and both fluorophores were delivered by oral gavage. Urine was collected prior to oral gavage and at a series of time points post-gavage. Concentrations of MB-301 and MB-404 in urine were determined using HPLC, and the ratio of their concentrations was plotted over time in FIG. 1.

[7] = Control Participants, 360 min post-administration
[8] = Control Participants, 720 min post-administration

percent of administered dose recovered in urine [1]: wide range
SMILES: OC[C@H]1O[C@@H](O[C@@H]2[C@@H](CO)OC(O)(CO)[C@H]2O)[C@H](O)[C@@H](O)[C@H]1O (mixture of isomers) [lactulose, reference compound]

Plasma Concentration [4, 7]: 21.3 ng/mL | Plasma Concentration [4, 8]: 16.7 ng/mL | concentration at 360 min [4, 7]: 21.2 ng/mL | concentration at 720 min [4, 8]: 16.8 ng/mL | concentration at 360 min ([4]; Crohn's Disease Participant, 360 min post-administration): 63.1 ng/mL | concentration at 720 min ([4]; Crohn's Disease Participant, 720 min post-administration): 26.5 ng/mL | percent of administered dose recovered in urine [1]: wide range | urine excretion ([1]; diseased participants with respect to controls, oral administration): increased | MB-102 urine recovery ([1]; patients in remission when the study was performed): near normal values
SMILES: Nc1nc(C(=O)N[C@H](CO)C(=O)O)c(N)nc1C(=O)N[C@H](CO)C(=O)O [MB-102, 3,6-diamino-2,5-bis{N-[(1R)-1-carboxy-2-hydroxyethyl]carbamoyl}pyrazine]
Percent of Administered Dose Recovered (urine) [2]: higher | serious adverse events ([3]; 5 healthy adults and 4 adults with Crohn's disease): no serious adverse events | tolerability ([3]; healthy adults and adults with Crohn's disease): well tolerated

SMILES: Nc1nc(C(=O)O)c(N)nc1C(=O)O [MB-301, 3,6-diamino-2,5-pyrazine-dicarboxylic acid]
concentration as determined by transdermal fluorescence measurements ([5]; control animals): remained low | concentration as determined by transdermal fluorescence measurements ([5]; injured animals): remained low

SMILES: O=C(NCC(O)CO)c1nc(NC[C@H](O)CO)c(C(=O)NCC(O)CO)nc1NC[C@H](O)CO (stereo partly drawn) [MB-404, N^2,N^5-bis(2,3-dihydroxypropyl)-3,6-bis[(S)-2,3-dihydroxypropylamino]pyrazine-2,5-dicarboxamide]
concentration as determined by transdermal fluorescence measurements ([5]; control animals): remained low | concentration as determined by transdermal fluorescence measurements ([5]; injured animals): increased over time | ratio of MB-404 to MB-301 in urine [6]: higher
